Data: ChEMBL document CHEMBL1201861, “Genomics of Drug Sensitity in Cancer screening data, Wellcome Trust Sanger Institute”

How the values were obtained:
Assay in all cases: cells
COR-L88 = format: functional, cell-based; conditions: Homo sapiens;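 further: growth inhibition of COR-L88 cells, read out with a cell viability assay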
Description: SANGER: Inhibition of human COR-L88 cell growth in a cell viability assay.

CP66-MEL = format: functional, cell-based, Homo sapiens; conditions: Homo sapiens, CP66-MEL;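 further: growth inhibition of CP66-MEL cells determined in a cell viability assay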
Description: SANGER: Inhibition of human CP66-MEL cell growth in a cell viability assay.

EC-GI-10 = format: functional, cell-based, Homo sapiens; conditions: Homo sapiens, EC-GI-10
Description: SANGER: Inhibition of human EC-GI-10 cell growth in a cell viability assay.

ES1 = format: functional, cell-based, Homo sapiens; conditions: Homo sapiens, ES1
Description: SANGER: Inhibition of human ES1 cell growth in a cell viability assay.

ES3 = format: functional, cell-based, Homo sapiens; conditions: Homo sapiens, ES3;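 further: growth inhibition of ES3 cells, read out with a cell viability assay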
ES8 = format: functional, cell-based, Homo sapiens; conditions: Homo sapiens, ES8;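 further: growth inhibition of human ES8 cells, read out with a cell viability assay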
Description: SANGER: Inhibition of human ES8 cell growth in a cell viability assay.

EW-18 = format: functional, cell-based; conditions: Homo sapiens;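 further: growth inhibition of EW-18 cells, read out by a cell viability assay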
Description: SANGER: Inhibition of human EW-18 cell growth in a cell viability assay.

HCE-T = format: functional, cell-based, Homo sapiens; conditions: Homo sapiens, HCE-T;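 further: cell viability assay read-out, reporting inhibition of HCE-T cell growth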
Description: SANGER: Inhibition of human HCE-T cell growth in a cell viability assay.

HOP-62 = format: functional, cell-based, Homo sapiens; conditions: Homo sapiens, HOP-62;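 further: cell growth inhibition determined with a viability assay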
Description: SANGER: Inhibition of human HOP-62 cell growth in a cell viability assay.

IST-MES1 = format: functional, cell-based, Homo sapiens; conditions: Homo sapiens, IST-MES1;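 further: growth inhibition of IST-MES1 cells, measured with a cell viability assay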
Description: SANGER: Inhibition of human IST-MES1 cell growth in a cell viability assay.

JAR = format: functional, cell-based, Homo sapiens; conditions: Homo sapiens, JAR;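 further: growth inhibition of human JAR cells determined with a cell viability assay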
KE-37 = format: functional, cell-based; conditions: Homo sapiens;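 further: growth inhibition of KE-37 cells, read out with a cell viability assay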
KM-H2 = format: functional, cell-based; conditions: Homo sapiens;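 further: growth inhibition of KM-H2 cells, read out by a cell viability assay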
Description: SANGER: Inhibition of human KM-H2 cell growth in a cell viability assay.

LS-513 = format: functional, cell-based, Homo sapiens; conditions: Homo sapiens, LS-513
Description: SANGER: Inhibition of human LS-513 cell growth in a cell viability assay.

MSTO-211H = format: functional, cell-based, Homo sapiens; conditions: Homo sapiens, MSTO-211H
Description: SANGER: Inhibition of human MSTO-211H cell growth in a cell viability assay.

NB17 = format: functional, cell-based; conditions: Homo sapiens;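 further: growth inhibition of NB17 cells, read out with a cell viability assay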
Description: SANGER: Inhibition of human NB17 cell growth in a cell viability assay.

NCI-H209 = format: functional, cell-based; conditions: Homo sapiens;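 further: growth inhibition of human NCI-H209 cells, measured by a cell viability assay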
Description: SANGER: Inhibition of human NCI-H209 cell growth in a cell viability assay.

NMC-G1 = format: functional, cell-based, Homo sapiens; conditions: Homo sapiens, NMC-G1;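 further: growth inhibition of the NMC-G1 cell line, measured with a cell viability read-out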
Description: SANGER: Inhibition of human NMC-G1 cell growth in a cell viability assay.

P30-OHK = format: functional, cell-based; conditions: Homo sapiens;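 further: growth inhibition of the P30-OHK cell line, read out with a cell viability assay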
Description: SANGER: Inhibition of human P30-OHK cell growth in a cell viability assay.

PSN1 = format: functional, cell-based, Homo sapiens; conditions: Homo sapiens, PSN1;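 further: suppression of growth of human PSN1 cells, read out by a cell viability assay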
Description: SANGER: Inhibition of human PSN1 cell growth in a cell viability assay.

RKO = format: functional, cell-based, Homo sapiens; conditions: Homo sapiens, RKO;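 further: growth inhibition of human RKO cells, read out with a cell viability assay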
RPMI-8226 = format: functional, cell-based; conditions: Homo sapiens
Description: SANGER: Inhibition of human RPMI-8226 cell growth in a cell viability assay.

SF-268 = format: functional, cell-based, Homo sapiens; conditions: Homo sapiens, SF-268;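 further: growth inhibition of SF-268 cells determined with a cell viability assay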
Description: SANGER: Inhibition of human SF268 cell growth in a cell viability assay.

SW 954 = format: functional, cell-based, Homo sapiens; conditions: Homo sapiens, SW 954;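 further: growth inhibition of SW954 human cancer cells, read out as cell viability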
Description: SANGER: Inhibition of human SW954 cell growth in a cell viability assay.

SW982 = format: functional, cell-based; conditions: Homo sapiens;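 further: growth inhibition of SW982 cells, read out with a cell viability assay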
Description: SANGER: Inhibition of human SW982 cell growth in a cell viability assay.

ALL-PO = format: functional, cell-based; conditions: Homo sapiens;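 further: growth inhibition of ALL-PO cells, read out by a cell viability assay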
Description: SANGER: Inhibition of human ALL-PO cell growth in a cell viability assay.

AM-38 = format: functional, cell-based, Homo sapiens; conditions: Homo sapiens, AM-38;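 further: growth inhibition of AM-38 cells of human origin, read out by a cell viability assay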
TE-8 = format: functional, cell-based, Homo sapiens; conditions: Homo sapiens, TE-8;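 further: growth inhibition of TE-8 cells, measured with a cell viability readout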
Description: SANGER: Inhibition of human TE-8 cell growth in a cell viability assay.

U-87 MG = format: functional, cell-based, U-87MG ATCC; conditions: Homo sapiens;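 further: growth inhibition of the cells measured with a viability assay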
Description: SANGER: Inhibition of human U-87-MG cell growth in a cell viability assay.

Structure (SMILES) | IC50 (COR-L88) [µM] | IC50 (CP66-MEL) [µM] | IC50 (EC-GI-10) [µM] | IC50 (ES1) [µM] | IC50 (ES3) [µM] | IC50 (ES8) [µM] | IC50 (EW-18) [µM] | IC50 (HCE-T) [µM] | IC50 (HOP-62) [µM] | IC50 (IST-MES1) [µM] | IC50 (JAR) [µM] | IC50 (KE-37) [µM] | IC50 (KM-H2) [µM] | IC50 (LS-513) [µM] | IC50 (MSTO-211H) [µM] | IC50 (NB17) [µM] | IC50 (NCI-H209) [µM] | IC50 (NMC-G1) [µM] | IC50 (P30-OHK) [µM] | IC50 (PSN1) [µM] | also measured
CO[C@H]1C[C@@H]2CC[C@@H](C)[C@@](O)(O2)C(=O)C(=O)N2CCCC[C@H]2C(=O)O[C@H]([C@H](C)C[C@@H]2CC[C@@H](O)[C@H](OC)C2)CC(=O)[C@H](C)/C=C(\C)[C@@H](O)[C@@H](OC)C(=O)[C@H](C)C[C@H](C)/C=C/C=C/C=C/1C [SIROLIMUS] | > 0.1 | > 0.1 | > 0.1 | > 0.1 | > 0.1 | > 0.1 | > 0.1 | > 0.1 | > 0.1 | > 0.1 | > 0.1 | 0.0161 | > 0.1 | > 0.1 | > 0.1 | > 0.1 | 0.0874 | 0.0337 | > 0.1 | > 0.1 | IC50 (RKO): 0.0503 µM; IC50 (RPMI-8226): 0.00119 µM; IC50 (SF-268): > 0.1 µM; IC50 (SW 954): > 0.1 µM; IC50 (SW982): > 0.1 µM; IC50 (ALL-PO): > 0.1 µM; IC50 (AM-38): > 0.1 µM; IC50 (TE-8): > 0.1 µM; IC50 (U-87 MG): > 0.1 µM
CCC(=O)N1CCN(c2ccc(-n3c(=O)ccc4cnc5ccc(-c6cnc7ccccc7c6)cc5c43)cc2C(F)(F)F)CC1 [TORIN1] | 1.11 | 0.314 | > 1.2 | 0.031 | > 1.2 | 0.0184 | > 1.2 | 0.109 | 0.0356 | 0.235 | 0.116 | 0.0157 | > 1.2 | 0.391 | > 1.2 | 0.117 | 0.23 | 0.0345 | > 1.2 | 0.0141 | IC50 (RKO): 0.0153 µM; IC50 (RPMI-8226): 0.00651 µM; IC50 (SF-268): 0.0982 µM; IC50 (SW 954): 0.0379 µM; IC50 (SW982): 0.0425 µM; IC50 (ALL-PO): 0.0496 µM; IC50 (AM-38): > 1.2 µM; IC50 (TE-8): 0.0902 µM; IC50 (U-87 MG): > 1.2 µM
CNC(=O)c1cc(Oc2ccc(NC(=O)Nc3ccc(Cl)c(C(F)(F)F)c3)cc2)ccn1 [SORAFENIB] | > 4 | > 4 | > 4 | > 4 | > 4 | > 4 | > 4 | > 4 | 0.851 | > 4 | > 4 | > 4 | > 4 | > 4 | > 4 | > 4 | > 4 | > 4 | > 4 | > 4 | IC50 (RKO): > 4 µM; IC50 (RPMI-8226): > 4 µM; IC50 (SF-268): > 4 µM; IC50 (SW 954): > 4 µM; IC50 (ALL-PO): 0.0318 µM; IC50 (AM-38): > 4 µM; IC50 (TE-8): > 4 µM; IC50 (U-87 MG): > 4 µM
CS(=O)(=O)CCNCc1ccc(-c2ccc3ncnc(Nc4ccc(OCc5cccc(F)c5)c(Cl)c4)c3c2)o1 [LAPATINIB] | > 2 | > 2 | > 2 | > 2 | > 2 | > 2 | > 2 | > 2 | > 2 | > 2 | > 2 | > 2 | > 2 | > 2 | > 2 | > 2 | > 2 | > 2 | > 2 | > 2 | IC50 (RKO): > 2 µM; IC50 (RPMI-8226): > 2 µM; IC50 (SF-268): > 2 µM; IC50 (SW 954): > 2 µM; IC50 (ALL-PO): > 2 µM; IC50 (AM-38): > 2 µM; IC50 (TE-8): > 2 µM; IC50 (U-87 MG): > 2 µM
CC1=C2C[C@H]3[C@@H](CC=C4C[C@@H](O)CC[C@@]43C)[C@@H]2CC[C@]12O[C@@H]1C[C@H](C)CN[C@H]1[C@H]2C [CYCLOPAMINE] | > 16 | > 16 | > 16 | > 16 | > 16 | > 16 | > 16 | > 16 | > 16 | > 16 | > 16 | > 16 | > 16 | 11.4 | > 16 | > 16 | > 16 | > 16 | > 16 | > 16 | IC50 (RKO): > 16 µM; IC50 (RPMI-8226): > 16 µM; IC50 (SF-268): > 16 µM; IC50 (SW 954): > 16 µM; IC50 (ALL-PO): 11.8 µM; IC50 (AM-38): > 16 µM; IC50 (TE-8): > 16 µM; IC50 (U-87 MG): > 16 µM
